Experimental data from patent US20010016731A1, “Methods and apparatus for accelerated orthokeratology” (priority 1998, published 2001).

Key:
[1] = tested on: enucleated pig eyes (cornea)
[2] = tested on: enucleated pig eyes (cornea); assay: Experiment 2: enucleated pig eyes, EYESYS topographical mapping and slit lamp; conditions: 0.3M sodium persulfate, UV about 30 seconds
Protocol: Second set of experiments also using enucleated pig eyes. an EYESYS topographical system was available to perform topographical mapping of the eyes before and after treatment. In addition, the EFOS Ultracure 100SS was available for UV light treatment. In a control part of the experiment, an eye was examined using a slit lamp and using the EYESYS system. Neither glutaric anhydride nor sodium persulfate were administered prior to application of UV light exposure. However, buffers were administered to simulate full treatment. […] In a second part of the experiment, a second pig eye was examined by slit lamp, and EYESYS. Topographical profiles were printed. The eye was them soaked in phosphate buffer at pH 8.5 for 2 minutes. Glutaric anhydride at 10 mg/ml was prepared in an alcohol solution and immediately administered to the eye. A contact lens was applied to the eye and held in place for 1 minute. The eye was then soaked in a sodium persulfate solution (0.3M sodium persulfate in pH 8.5 buffer) with the lens still in place. After several one (1) minute soaks in the sodium persulfate solution, the eye was exposed to UV light for about 30 seconds. The lens was removed and the eye washed with phosphate buffer, pH 7.2. The eye was then examined by slit lamp and EYESYS. […] In a third part of the experiment, a third eye was treated the same as above, expect that the glutaric anhydride was delivered in a phosphate buffer, pH 8.5, in an attempt to prevent the clouding observed using alcohol.

[3] = tested on: rabbit's eyes (cornea); assay: Experiment 3: live rabbit eye, EYESYS topography and slit-lamp; format: in vivo; conditions: glutaric anhydride 20 mg/ml in pH 8.5 phosphate buffer, contact lens, 0.3M sodium persulfate, UV two 30 second bursts
Protocol: Third set of experiments using a live rabbit. Both the EYESYS topographical system and EFOS Ultracure 100SS were available. The rabbit's eyes were examined by slit-lamp and EYESYS. Topographical profiles were printed. The control eye was left untreated. The experimental eye was exposed to 0.02M phosphate buffer, pH 8.5, and treated with glutaric anhydride at 20 mg/ml in pH 8.5 phosphate buffer followed by application of a contact lens. The eye was then washed with 0.02M phosphate buffer, pH 8.5 to remove residual glutaric acid, soaked with buffer containing 0.3M sodium persulfate and exposed to UV light for two 30 second bursts with the contact lens in place. Both the control and treated eyes were examined by slit-lamp and EYESYS. Topographical profiles were printed.

[4] = contact lens without destabilization, sodium persulfate solution then UV about 30 seconds
[5] = glutaric anhydride 10 mg/ml in alcohol solution, contact lens 1 minute

Structure (SMILES) | persistence of ridge created by the contact lens [1, 4] | slit-lamp appearance of eyes after treatment [1, 4] | EYESYS examination (eye topography) [2, 5] | slit lamp examination (corneal clouding) [2, 5] | EYESYS examination (eye topography) ([2]; glutaric anhydride delivered in phosphate buffer pH 8.5, contact lens) | slit lamp examination (corneal clouding) ([2]; glutaric anhydride delivered in phosphate buffer pH 8.5, contact lens, compared with alcohol solution) | slit-lamp examination of treated eye [3] | surface topography of treated eye (EYESYS) [3] | time for corneal haze to clear [3] | indentations and ridges created by the lens ([1]; 10 mg/ml glutaric anhydride 1 minute, contact lens, 0.3M sodium persulfate, UV 20 seconds) | K-readings after UV treatment ([1]; 10 mg/ml glutaric anhydride 1 minute, contact lens, 0.3M sodium persulfate, UV 20 seconds, pretreatment 36.75/37.5)
O=S(=O)([O-])OOS(=O)(=O)[O-].[Na+].[Na+] [sodium persulfate] | visible after 1 hour | clear |  |  |  |  |  |  |  |  | 
O=C1CCCC(=O)O1 [glutaric anhydride] |  |  | eye topography had been changed | some cloudiness | topographical changes appearing to match the curvature of the applied contact lens | much less corneal clouding | some corneal haze | obvious change in surface topography | about 1 hour | observed immediately post-treatment and 1 hour after treatment | too steep to read and rather distorted
